Legend:
Assay in all cases: cells
[1] = system: Will2; conditions: 6 h, read-out: AZD5991 6h EC50
Description: (§1) Cells were plated at 3000 cells/well in 384-well white plates in corresponding cell growth media. […] Caspase-3/7 activation was subsequently determined using a Caspase-Glo 3/7 Reagent (Promega) and viability was assayed using the CellTiter-Glo Reagent (Promega) as described in manufacturer’s instructions. Dose–response curves for caspase-3/7 activation and viability were plotted and analyzed (including EC50 and GI50 determination) using GraphPad Prism. Percentage of caspase activation was calculated against the maximum caspase activation value (100%) obtained with a proprietary cell kill control.

[2] = system: H358; conditions: Homo sapiens, NCI-H358, 6 h, read-out: AZD5991 6h EC50
Description: as §1

[3] = system: H446; conditions: Homo sapiens, NCI-H446, 6 h, read-out: AZD5991 6h EC50
Description: as §1

[4] = system: H196; conditions: NCI-H196, 6 h, read-out: AZD5991 6h EC50
Description: as §1

[5] = system: KG1a; conditions: Homo sapiens, KG-1a, 6 h, read-out: AZD5991 6h EC50
Description: as §1

[6] = system: LP1; conditions: Homo sapiens, LP-1, 6 h, read-out: AZD5991 6h EC50
Description: as §1

[7] = system: MINO; conditions: Homo sapiens, 6 h, read-out: AZD5991 6h EC50
Description: as §1

[8] = system: WSUNHL; conditions: Homo sapiens, WSU-NHL, 6 h, read-out: AZD5991 6h EC50
Description: as §1

[9] = system: H1975; conditions: Homo sapiens, NCI-H1975, 6 h, read-out: AZD5991 6h EC50
Description: as §1

[10] = system: REC1; conditions: Homo sapiens, Rec1, 6 h, read-out: AZD5991 6h EC50
Description: as §1

[11] = system: KMS11; conditions: Homo sapiens, KMS-11, 6 h, read-out: AZD5991 6h EC50
Description: as §1

[12] = system: COLO829; conditions: Homo sapiens, COLO-829, 6 h, read-out: AZD5991 6h EC50
Description: as §1

[13] = system: HCC827; conditions: Homo sapiens, HCC827, 6 h, read-out: AZD5991 6h EC50
Description: as §1

[14] = system: H1568; conditions: NCI-H1568, 6 h, read-out: AZD5991 6h EC50
Description: as §1

[15] = system: Sudhl16; conditions: Homo sapiens, SU-DHL-16, 6 h, read-out: AZD5991 6h EC50
Description: as §1

[16] = system: G361; conditions: Homo sapiens, G-361, 6 h, read-out: AZD5991 6h EC50
Description: as §1

[17] = system: Calu1; conditions: Homo sapiens, Calu-1, 6 h, read-out: AZD5991 6h EC50
Description: as §1

[18] = system: Sudhl2; conditions: Homo sapiens, SU-DHL-2, 6 h, read-out: AZD5991 6h EC50
Description: as §1

[19] = system: MEWO; conditions: Homo sapiens, 6 h, read-out: AZD5991 6h EC50
Description: as §1

[20] = system: H2122; conditions: Homo sapiens, NCI-H2122, 6 h, read-out: AZD5991 6h EC50
Description: as §1

[21] = system: SNU16; conditions: Homo sapiens, SNU-16, 6 h, read-out: AZD5991 6h EC50
Description: as §1

[22] = system: Colo205; conditions: Homo sapiens, COLO 205, 6 h, read-out: AZD5991 6h EC50
Description: as §1

[23] = system: DLD1; conditions: Homo sapiens, DLD-1, 6 h, read-out: AZD5991 6h EC50
Description: as §1

[24] = system: SKMEL2; conditions: Homo sapiens, SK-MEL-2, 6 h, read-out: AZD5991 6h EC50
Description: as §1

[25] = system: Bjab; conditions: Homo sapiens, 6 h, read-out: AZD5991 6h EC50
Description: as §1

[26] = system: WM2664; conditions: Homo sapiens, WM 266-4, 6 h, read-out: AZD5991 6h EC50
Description: as §1

[27] = system: H209; conditions: Homo sapiens, NCI-H209, 6 h, read-out: AZD5991 6h EC50
Description: as §1

[28] = system: OCILY3; conditions: Homo sapiens, OCI-Ly3, 6 h, read-out: AZD5991 6h EC50
Description: as §1

[29] = system: 5637; conditions: 6 h, read-out: AZD5991 6h EC50
Description: as §1

[30] = system: MM1R; conditions: MM.1R, 6 h, read-out: AZD5991 6h EC50
Description: as §1

[31] = system: BT549; conditions: Homo sapiens, BT-549, 6 h, read-out: AZD5991 6h EC50
Description: as §1

[32] = system: Kasumi3; conditions: Kasumi-3, 6 h, read-out: AZD5991 6h EC50
Description: as §1

[33] = system: Raji; conditions: Homo sapiens, 6 h, read-out: AZD5991 6h EC50
Description: as §1

[34] = system: 647V; conditions: Homo sapiens, 6 h, read-out: AZD5991 6h EC50
Description: as §1

[35] = system: SKMEL24; conditions: Homo sapiens, SK-MEL-24, 6 h, read-out: AZD5991 6h EC50
Description: as §1

[36] = system: H82; conditions: Homo sapiens, NCI-H82, 6 h, read-out: AZD5991 6h EC50
Description: as §1

Work on `Cc1c2c(nn1C)CSCc1cc(n(C)n1)CSc1cc(c3ccccc3c1)OCCCc1c(C(=O)O)n(C)c3c-2c(Cl)ccc13` (atropisomer, axis not shown; (Ra)) [(Ra)-7] yielded an EC50 [1] of 193 nM, an EC50 [2] greater than 30000 nM and an EC50 [3] greater than 30000 nM. It also gave an EC50 [4] greater than 30000 nM, an EC50 [5] of 1420 nM and an EC50 [6] of 249 nM. For the same compound, the EC50 [7] was 1290 nM, the EC50 [8] was 512 nM and the EC50 [9] was greater than 30000 nM. For the same compound, the EC50 [10] was 2010 nM, the EC50 [11] was 1570 nM and the EC50 [12] was greater than 30000 nM. The EC50 [13] was greater than 30000 nM, the EC50 [14] was 300 nM and the EC50 [15] was 139 nM. For the same compound, the EC50 [16] was 2440 nM, the EC50 [17] was greater than 30000 nM and the EC50 [18] was 275 nM. For the same compound, the EC50 [19] was greater than 30000 nM, the EC50 [20] was 15200 nM and the EC50 [21] was 183 nM. It also gave an EC50 [22] of 121 nM, an EC50 [23] of 29100 nM and an EC50 [24] of 9480 nM. The EC50 [25] was 47 nM, the EC50 [26] was greater than 30000 nM and the EC50 [27] was greater than 30000 nM. For the same compound, the EC50 [28] was greater than 30000 nM, the EC50 [29] was 107 nM and the EC50 [30] was 120 nM. It also gave an EC50 [31] of 1780 nM, an EC50 [32] of 882 nM and an EC50 [33] of 7400 nM. The EC50 [34] was 26500 nM, the EC50 [35] was greater than 30000 nM and the EC50 [36] was 201 nM.

— article PMC6297231 (Nature Communications, 2018)
